Results on four molecules are retold here after EP1718623B1, “COMPOUNDS AS INHIBITORS OF CELL PROLIFERATION AND VIRAL INFECTIONS” (4SC AG, priority 2004, dated 2005).

Bounds are passed on as bounds.

One test addresses T1, 20S proteasome (Homo sapiens, UniProt P28074).
T1 construct: purchased Immatics, Tübingen
The experiment in a line: Proteasome assay (chymotryptic activity, Suc-LLVT-AMC substrate). The format is biochemical. To be noted: 30°C, 20 min. The text has this: Regulation of the immune response is controlled by a variety of signalling pathways such as T-cell or TNF receptor signalling (Chen G et al. Scienc,296 1634-1640,2002). To further characterize targets of compounds which we found active in the T-cell proliferation assay, we tested the compounds on a variety of targets involved in such pathways. Compounds described here are inhibitors of T-lymphocyte proliferation were active on three molecular targets: Kv1.3 ion channels and Inosine Monophosphate Dehydrogenase (IMPDH) and the human proteasome. The compounds described may act on one of these targets specifically or on several targets simultaneously.
The chymotryptic activity of the 20S proteasome (Immatics, Tübingen) was determined using a Tecan Ultra plate reader and Suc-LLVT-AMC as substrate (Bachem). […]

Test [1] deals with peripheral blood monocyte (PBMC). Put plainly: T Lymphocyte Proliferation Assay (PHA-stimulated PBMC, BrdU incorporation ELISA). The format is cell-based. The following applies: Homo sapiens, PBMCs stimulated with 2 µg/ml phytohemoagglutinin, 72 h. How it is done:
We used a nonradioactive technique for the measurement of in vitro T-cell proliferation (Messele T et al. Clinical and Diagnostic Laboratory Immunology,687-692,2002).
Peripheral blood mononuclear cells (PBMCs) were isolated from human blood obtained from volunteer donators. PBMCs were isolated by centrifugation in ACCUSPIN tubes using HISTOPAQUE.
PBMCs were stimulated with PHA and cell proliferation was measured with a Roche colorimetric BromUridin incorporation ELISA kit.
Inhibition of stimulated peripheral blood monocyte (PBMC) stimulation
PBMCs were isolated from the blood of healthy volunteers with the help of ACCUSPIN™ System Histopaque®-1077 tubes, washed and resuspended with 10^6 cells/ml in Dulbecco's modified eagles medium, containing 10 % fetal calf serum and 2 mM Glutamine.
The cells were stimulated with 2 µg/ml phytohemoagglutinin in the presence of test compound or blank vehicle for 72 h. 4 h prior to the end of the incubation period, 5-bromo-2'-desoxyuridine (BrdU) was added to label the proliferating cells. After the incubation, the cells were separated by centrifugation and the culture supernatant removed. Incorporated BrdU was quantified with the help of an enzyme-linked immunosorbent assay.
For the determination of the IC50 values (concentration of inhibitor required for 50% inhibition) at least four different inhibitor concentrations were applied. […]
In general terms: Incorporation of labelled thymidine or its analogues reports DNA synthesis.

Another test addresses T2, Kv1.3 channels (Mus musculus, UniProt P16390).
T2 construct: expressed in transfected cells; host or cells: L929 cells
Put plainly: Kv1.3 assay, whole-cell patch-clamp in stable transfected L929 cells. The following applies: c=20 µM; each compound tested on two different cells; steady-state current. Format: cell-based. How it is done:
The inhibition of Kv1.3 was measured in stable transfected cell lines expressing mouse Kv1.3 using the patch-clamp technique (Rauer H et al. J Biol Chem Vol.275, No. 2, 1201-1208, 2000), Rauer H Mol Pharmacol,50, 1625-1634, 1996, Rauer H et al. J Pharmacol, 127, 1065-1074, 1999).
Stable transfected L929 cells with Kv1.3 channels were grown in DMEM (Glutamax-I) media with 10% FCS, geneticin 330 µg/ml under 10% CO2 atmosphere.
Whole-cell patch-clamp configuration, with an external bath solution of 160 mM NaCl, 4,5 mM KCl, 1 mM MgCl, 2 mM CaCl2,5 mM HEPES, 10 mM EGTA and NaOH adjusted to pH 7. 4. Internal pipette solution for recording was 155 mM KF, 2 mM MgCl2 , 10 mM HEPES, 10 mM EGTA with KOH adjusted to pH 7.2. Currents were activated by a 200-ms voltage step from a holding potential of -80 to 40 mV every 30 s. Holding potential -80 mV.
Each compound was tested on two different cells. The cell was perfused with external bath solution (black line), then the compound was applied (c=20 µM). The resulting stedy-state current traces are shown as red lines. Example 3, 5, 6, 7, 8 are blockers.
(In general: Patch clamp records ionic current or voltage across a cell membrane.)

The target of a further test is Kv1.3 (Homo sapiens, UniProt P22001). To be noted: blocks Kv1.3 currents; Kath JC et al. 1997; cited from earlier work.
The next test deals with T-lymphocyte. The following applies: inhibits T-lymphocyte proliferation; Kath JC et al. 1997; cited from earlier work.

T2 sequence (P16390 whole entry): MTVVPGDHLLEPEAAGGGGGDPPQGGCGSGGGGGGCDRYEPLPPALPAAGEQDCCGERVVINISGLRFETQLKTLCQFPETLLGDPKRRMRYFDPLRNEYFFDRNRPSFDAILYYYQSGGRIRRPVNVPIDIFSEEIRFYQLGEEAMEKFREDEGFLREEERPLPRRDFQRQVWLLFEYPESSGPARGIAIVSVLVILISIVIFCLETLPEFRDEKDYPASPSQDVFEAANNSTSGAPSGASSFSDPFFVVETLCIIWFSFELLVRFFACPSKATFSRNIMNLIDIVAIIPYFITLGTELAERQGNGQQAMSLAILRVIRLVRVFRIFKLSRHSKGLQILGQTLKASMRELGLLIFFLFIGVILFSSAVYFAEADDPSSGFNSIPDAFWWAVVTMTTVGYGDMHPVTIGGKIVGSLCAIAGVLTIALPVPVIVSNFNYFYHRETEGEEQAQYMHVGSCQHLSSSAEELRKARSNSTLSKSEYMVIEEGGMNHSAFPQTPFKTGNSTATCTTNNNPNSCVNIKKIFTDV
Chain of Kv1.3 (P22001 whole entry): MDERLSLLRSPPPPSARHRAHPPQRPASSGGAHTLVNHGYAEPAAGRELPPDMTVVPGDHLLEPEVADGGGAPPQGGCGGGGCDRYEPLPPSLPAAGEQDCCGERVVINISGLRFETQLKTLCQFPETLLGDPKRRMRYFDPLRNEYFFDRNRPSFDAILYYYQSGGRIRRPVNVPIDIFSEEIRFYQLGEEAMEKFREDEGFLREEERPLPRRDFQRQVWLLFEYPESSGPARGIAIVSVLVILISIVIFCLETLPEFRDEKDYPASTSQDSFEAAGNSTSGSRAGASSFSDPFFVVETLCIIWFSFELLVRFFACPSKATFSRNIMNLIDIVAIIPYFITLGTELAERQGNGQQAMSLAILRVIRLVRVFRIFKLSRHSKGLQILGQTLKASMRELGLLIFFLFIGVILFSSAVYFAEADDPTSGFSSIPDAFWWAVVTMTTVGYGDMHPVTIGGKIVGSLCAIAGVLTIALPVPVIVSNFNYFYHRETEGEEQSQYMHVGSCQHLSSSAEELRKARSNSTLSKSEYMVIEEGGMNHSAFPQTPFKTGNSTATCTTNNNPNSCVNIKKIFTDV

As usually defined, the IC50 is the concentration that gives 50% inhibition. For the molecule `O=C(Nc1ccc(C2=N[C@H](c3ccccc3)CO2)cc1)Nc1ccc(S(=O)(=O)NCc2cc(F)c(F)c(F)c2)cc1` [Example 1, 4-{3-[4-(4-(R)-Phenyl-4,5-dihydro-oxazol-2-yl)-phenyl]-ureido}-N-(3,4,5-trifluorobenzyl)-benzenesulfonamide], the IC50 (against 20S proteasome; in test [1]) was under 5000 nM in each case.

Consider `O=C(Nc1ccc(C2=N[C@H](Cc3ccccc3)CO2)cc1)Nc1ccc(S(=O)(=O)NCc2cc(F)c(F)c(F)c2)cc1` [Example 3, 4-{3-[4-(4-(R)-Benzyl-4,5-dihydro-oxazol-2-yl)-phenyl]- -ureido}-N-(3,4,5-trifluorobenzyl)-benzenesulfonamide], for which, on Kv1.3 channels, the Kv1.3 block entry is recorded as “blockers”. In the case of `O=C(Nc1ccc(S(=O)(=O)NCc2cc(F)c(F)c(F)c2)cc1)Nc1cccc(C2=N[C@@H](Cc3ccccc3)CO2)c1` [Example 22, 4-{3-[3-(4-(S)-Benzyl-4,5-dihydro-oxazol-2-yl)-phenyl]-ureido}-N-(3,4,5-trifluorobenzyl)-benzenesulfonamide], the IC50 in test [1] is under 5000 nM. As to “noxiustoxin (TIINVKCTSPKQCSKPCKELYGSSAGAKCMNGKCKCYNN; UniProt P08815 1-39, looked up)”, the IC50 in the test with Kv1.3 was 0.2 nM; in the test on T-lymphocyte it was 8 nM.
